In one test the target is human CB1 receptor (Homo sapiens, UniProt P21554). Description: FLIPR membrane potential assay. The test is classed as cell-based. To be noted: for EC50: membrane potential; for hCB1 Max ± SEM (% CP 55,940): maximum drug effect as percentage of maximally effective (1 µM) CP 55,940; for CB1 selectivity: ratio of CB2 EC50 to CB1 EC50.
A further test has as its target human CB2 receptor (Homo sapiens, UniProt P34972). Description: FLIPR membrane potential assay. The test is classed as cell-based. To be noted: for hCB2 Max ± SEM (% CP 55,940) at 30 µM: effect at 30 µM, highest concentration tested, relative to 1 µM CP 55,940; for EC50: membrane potential; for hCB2 Max ± SEM (% CP 55,940): maximum drug effect as percentage of maximally effective (1 µM) CP 55,940.

[1] abbreviates: hCB2 pEC50 ± SEM, AtT-20-CB2 cells.
The mark [2] stands for this setting: hCB1 pEC50 ± SEM, AtT-20-CB1 cells.

Chain of human CB2 receptor (P34972 whole entry): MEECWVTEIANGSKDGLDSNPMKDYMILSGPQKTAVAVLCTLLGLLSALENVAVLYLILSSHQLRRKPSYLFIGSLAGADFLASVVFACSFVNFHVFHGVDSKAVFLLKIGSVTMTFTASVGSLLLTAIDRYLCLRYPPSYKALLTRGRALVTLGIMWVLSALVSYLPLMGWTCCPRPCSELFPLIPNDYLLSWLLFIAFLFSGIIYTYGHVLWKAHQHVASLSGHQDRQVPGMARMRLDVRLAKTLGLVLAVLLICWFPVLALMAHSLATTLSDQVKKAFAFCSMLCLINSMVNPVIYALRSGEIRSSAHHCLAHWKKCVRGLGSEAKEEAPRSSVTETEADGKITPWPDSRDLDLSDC
Chain of human CB1 receptor (P21554 whole entry): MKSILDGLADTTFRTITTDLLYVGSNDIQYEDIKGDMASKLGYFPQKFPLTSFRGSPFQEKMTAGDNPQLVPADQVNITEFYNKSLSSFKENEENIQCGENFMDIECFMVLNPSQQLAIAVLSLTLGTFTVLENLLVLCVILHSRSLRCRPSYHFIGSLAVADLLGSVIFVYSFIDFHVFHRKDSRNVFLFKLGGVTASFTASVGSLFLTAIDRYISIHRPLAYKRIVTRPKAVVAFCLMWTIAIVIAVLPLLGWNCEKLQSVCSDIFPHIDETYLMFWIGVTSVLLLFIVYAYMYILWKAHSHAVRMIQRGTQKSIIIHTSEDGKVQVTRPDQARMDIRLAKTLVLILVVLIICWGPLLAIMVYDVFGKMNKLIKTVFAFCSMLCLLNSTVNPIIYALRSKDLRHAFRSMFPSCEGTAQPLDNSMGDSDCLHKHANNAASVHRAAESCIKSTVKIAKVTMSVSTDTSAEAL

For `CC(C)[C@H](NC(=O)c1c2ccccc2nn1Cc1ccc(F)cc1)C(N)=O` [compound 8, (S)-N-(1-Amino-3-methyl-1-oxobutan-2-yl)-2-(4-fluorobenzyl)-2H-indazole-3-carboxamide], the “hCB1 Max ± SEM (% CP 55,940) at 30 µM” value on human CB1 receptor (effect at 30 µM, highest concentration tested, relative to 1 µM CP 55,940) is recorded as 61 ± 12 (at 30 µM) % CP 55,940. Also, at human CB2 receptor, the “hCB2 Max ± SEM (% CP 55,940) at 30 µM” value is listed as 25 ± 4 (at 30 µM) % CP 55,940.
For the compound `CCCCCn1nc(C(=O)N[C@H](C(N)=O)C(C)C)c2ccccc21` [compound 5, (S)-N-(1-Amino-3-methyl-1-oxobutan-2-yl)-1-pentyl-1H-indazole-3-carboxamide], the EC50 was 6.5 nM at human CB1 receptor (hCB1 EC50, AtT-20-CB1 cells); 9.9 nM on human CB2 receptor (hCB2 EC50, AtT-20-CB2 cells); 9.77 nM at human CB2 receptor (setting [1]). At human CB1 receptor, the “hCB1 Max ± SEM (% CP 55,940)” value is reported as 142 ± 15 % CP 55,940. Also, the CB1 selectivity on human CB1 receptor worked out at 1.5. Also, the “hCB2 Max ± SEM (% CP 55,940)” value on human CB2 receptor is given as 102 ± 9 % CP 55,940.
Take `CC(C)[C@H](NC(=O)c1c2ccccc2nn1CCCCCF)C(N)=O` [compound 10, (S)-N-(1-Amino-3-methyl-1-oxobutan-2-yl)-2-(5-fluoropentyl)-2H-indazole-3-carboxamide]: the EC50 was 1930 nM at human CB1 receptor (hCB1 EC50, AtT-20-CB1 cells); 1910 nM on human CB1 receptor (setting [2]); 2980 nM at human CB2 receptor (hCB2 EC50, AtT-20-CB2 cells). At human CB1 receptor, the CB1 selectivity was 1.5. For the same compound, at human CB2 receptor, the “hCB2 Max ± SEM (% CP 55,940) at 30 µM” value was 47 ± 15 (at 30 µM) % CP 55,940.
On to `CC(C)[C@H](NC(=O)c1nn(CC2CCCCC2)c2ccccc12)C(N)=O` [compound 3, (S)-N-(1-Amino-3-methyl-1-oxobutan-2-yl)-1-(cyclohexylmethyl)-1H-indazole-3-carboxamide], for which the EC50 is 7.8 nM on human CB1 receptor (hCB1 EC50, AtT-20-CB1 cells) and 20.9 nM at human CB2 receptor (setting [1]). On human CB1 receptor, the “hCB1 Max ± SEM (% CP 55,940)” value is reported as 142 ± 18 % CP 55,940. The CB1 selectivity at human CB1 receptor came to 2.7. Moreover, the “hCB2 Max ± SEM (% CP 55,940)” value on human CB2 receptor is recorded as 104 ± 11 % CP 55,940.
Regarding `CC(C)[C@H](NC(=O)c1nn(Cc2ccc(F)cc2)c2ccccc12)C(N)=O` [compound 4, (S)-N-(1-Amino-3-methyl-1-oxobutan-2-yl)-1-(4-fluorobenzyl)-1H-indazole-3-carboxamide], on human CB1 receptor (setting [2]), the EC50 is 2.14 nM. Also, on human CB1 receptor, the “hCB1 Max ± SEM (% CP 55,940)” value is 151 ± 14 % CP 55,940 and the CB1 selectivity is given as 3.2. This compound showed an EC50 on human CB2 receptor (hCB2 EC50, AtT-20-CB2 cells) of 6.7 nM. Further, the “hCB2 Max ± SEM (% CP 55,940)” value at human CB2 receptor is listed as 98 ± 10 % CP 55,940.
On to `CCCCCn1nc2ccccc2c1C(=O)N[C@H](C(N)=O)C(C)C` [compound 9, (S)-N-(1-Amino-3-methyl-1-oxobutan-2-yl)-2-pentyl-2H-indazole-3-carboxamide], for which the EC50 was 4080 nM at human CB1 receptor (hCB1 EC50, AtT-20-CB1 cells) and 4120 nM at human CB2 receptor (hCB2 EC50, AtT-20-CB2 cells). Moreover, the CB1 selectivity on human CB1 receptor is given as 1.0.
Take `CC(C)[C@H](NC(=O)c1nn(CCCCCF)c2ccccc12)C(N)=O` [compound 6, (S)-N-(1-Amino-3-methyl-1-oxobutan-2-yl)-1-(5-fluoropentyl)-1H-indazole-3-carboxamide]: the EC50 at human CB1 receptor (setting [2]) is 2.82 nM. Further, at human CB1 receptor, the “hCB1 Max ± SEM (% CP 55,940)” value is given as 132 ± 9 % CP 55,940 and the CB1 selectivity is listed as 2.0. On human CB2 receptor (hCB2 EC50, AtT-20-CB2 cells), this compound had an EC50 of 5.6 nM. Also, the “hCB2 Max ± SEM (% CP 55,940)” value on human CB2 receptor is 98 ± 8 % CP 55,940.
For the compound `CC(C)[C@H](NC(=O)c1c2ccccc2nn1CC1CCCCC1)C(N)=O` [compound 7, (S)-N-(1-Amino-3-methyl-1-oxobutan-2-yl)-2-(cyclohexylmethyl)-2H-indazole-3-carboxamide], the “hCB2 Max ± SEM (% CP 55,940) at 30 µM” value at human CB2 receptor is recorded as 45 ± 7 (at 30 µM) % CP 55,940.

By EC50 is commonly meant the concentration giving half of the maximal effect. Low readings indicate higher potency in that assay, high ones lower potency in that assay.
